{"source": "patent US7345065B2", "about": "“Methods and compositions for alleviating pain” (Allergan, Inc., priority 2002, dated 2008)", "key": {"Male Sprague-Dawley rats": {"system": "Male Sprague-Dawley rats", "experiment": "Sedative effects in rats (total activity, digicom analyzer chamber)", "type": "in vivo, rat", "conditions": "single intraperitoneal dose 1 to 1000 μg/kg", "protocol": "(§1) Sedative effects were analyzed by assessing exploratory behavior in a darkened chamber as follows. Mice were weighed, and test compound administered by intrathecal injection in a volume of 5 μl or by intraperitoneal injection in 1 ml/kg volume at the indicated dose. At predetermined time points corresponding with analgesia measurements 5 to 30 minutes following the injection, the animal's activity was determined automatically by placing the mouse in a digicom analyzer chamber (Omnitech Electronic; Columbus, Ohio). The digicom analyzer chamber contains photocell beams criss-crossing the box that are broken as the animal moves around; the chamber was modified for mice by raising the level of the floor. Computer analysis of total animal movement proceeded over a 5-minute time period. Any given animal was used at most twice for this protocol, as learned behavior can affect the data. All animals received at least two weeks rest between studies.\nMale Sprague-Dawley rats that were not subject to surgery were used for assessment of sedative effects. Rats were weighed and compound administered by intravenous or intraperitoneal injection or given orally at the indicated dose. At a predetermined time point 5 to 30 minutes following injection, the animal's activity was determined automatically by placing the rat in a digicom analyzer chamber (Omnitech Electronic). Total activity was analyzed as described above."}, "[1]": {"system": "α-2B heterozygous (−/+) and homozygous (−/−) knockout mice", "experiment": "Sulprostone sensitized pain (allodynia), α-2B knockout mice", "type": "in vivo, mouse", "conditions": "intraperitoneal; heterozygous and homozygous α-2B knockout; clonidine 500 ug/kg, Compound 3 100 ug/kg"}, "mice": {"system": "mice", "experiment": "Sedative effects in mice (exploratory activity, digicom analyzer chamber)", "type": "in vivo, mouse", "conditions": "intraperitoneal, wild type mice; clonidine 500 ug/kg, Compound 3 100 ug/kg", "protocol": "as §1"}, "[2]": {"system": "sulprostone-sensitized wild type mice", "experiment": "Sulprostone sensitized pain (allodynia), wild type mice", "type": "in vivo, mouse", "conditions": "intraperitoneal, wild type mice; clonidine 500 ug/kg, Compound 3 100 ug/kg", "protocol": "Non-specific α-adrenergic agonists were assayed in α-2A receptor deficient (“knockout”) mice (Hein et al., supra, 1999) using a mouse model of sulprostone sensitized pain in which allodynia is evoked by intrathecal administration of a selective prostaglandin E2 receptor agonist to conscious mice essentially as described in Minami et al., Pain 57:217-223 (1994). In this model, the pain response to stroking the flank with a paint brush is scored eight times over a 35 minute period starting 15 minutes following spinal administration of sulprostone and intrathecal or intraperitoneal administration of drug or control vehicle. Sulprostone elicits a “pain” score of 12-13 on a 16-point scale.\nAssays for allodynia in wild type and α-2A knockout mice were performed essentially according to the method of Yaksh and Harty, J. Pharmacology Exp. Ther. 244: 501-507 (1998). In brief, mice were divided into groups of 5-6 animals. Control mice were administered 5 ul DMSO while treated animals were injected with 5 ul DMSO containing various doses of the indicated agent. After intrathecal injection, each mouse was placed in an individual 13×8.5×13 cm Plexiglass enclosure with wood chips on the floor for observation. Allodynia was assessed once every five minutes over a 50 minute time period, with response recorded eight times in the 15 to 50 minute time frame. Allodynia was assessed by light stroking of the flank of the mice with a small paintbrush and ranked as follows: 0, no response; 1, mild squeaking with attempts to move away from the stroking probe; and 2, vigorous squeaking evoked by the stroking probe, biting at the probe and strong efforts to escape. The eight scores for each animal were added together, and the mean for the group determined to give an average total score."}}, "data": [{"molecule": "O=C1c2ccccc2CCC1Cc1c[nH]c(=S)[nH]1", "note": "(racemic) [Compound 3]", "values": [{"measurement": "non-sedating dose relative to doses producing a robust reversal of allodynia", "setting": "Male Sprague-Dawley rats", "result": "> 100", "unit": "fold"}, {"measurement": "analgesic effect in α-2B knockout mice", "setting": "[1]", "result": "not analgesic"}, {"measurement": "concomitant sedation", "setting": "mice", "result": "without concomitant sedation"}, {"measurement": "sulprostone-induced tactile allodynia", "setting": "[2]", "result": "alleviated sulprostone-induced tactile allodynia"}]}]}
